Test results: patent US9133207B2, “Tetrandrine derivatives with substituted 5-carbon, preparation method and use thereof” (Hangzhou Bensheng Pharmaceutical Co., Ltd., priority 2011, dated 2015)
Values after ≈ are worked out from the molar mass of the structure shown.

Experiments:
[1] = tested on: MGC 803 (human gastric cancer cell); experiment: Solid tumor cell growth inhibition, MTT, 72 h (Example 7); type: cell-based; settings: Homo sapiens
How it was run: (§1)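 MTT read-out of viable cells after 72 h compound treatment, reported as percent viability versus untreated control (100%). Cells seeded at 4000 per well, grown 24 h beforehand in 10% FBS DMEM high glucose, 37 °C, 5% CO2.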

[2] = tested on: Huh7 (human liver cancer cell); experiment: as above; type: cell-based; settings: Homo sapiens; 72 h, MTT, Huh-7
How it was run: as §1

[3] = tested on: RKO (human colon adenocarcinoma cell); experiment: as above; type: cell-based; settings: Homo sapiens; 72 h, MTT, RKO
How it was run: as §1

[4] = tested on: Becap37 (human breast cancer cell); experiment: as above; type: cell-based; settings: Homo sapiens; 72 h, MTT, Becap-37
How it was run: as §1

[5] = tested on: A549 (human lung cancer); experiment: as above; type: cell-based; settings: for IC50 / IC90: Homo sapiens, 72 h, MTT, A549
How it was run: as §1

[6] = tested on: PANC-1 (pancreatic cancer); experiment: as above; type: cell-based, human; settings: Homo sapiens; 72 h, MTT, PANC-1
How it was run: as §1

[7] = tested on: PC-3 (prostate cancer); experiment: as above; type: cell-based, human; settings: for IC50 / IC90: Homo sapiens, 72 h, MTT, PC-3
How it was run: as §1

[8] = tested on: CaES-17 (esophageal cancer cell); experiment: as above; type: cell-based, human; settings: Homo sapiens, CaEs17; 72 h, MTT, CAES-17
How it was run: as §1

[9] = tested on: MG63 (osteosarcoma); experiment: as above; type: cell-based, human; settings: Homo sapiens; 72 h, MTT, MG-63
How it was run: as §1

[10] = tested on: RPMI8226 (multiple myeloma); experiment: Multiple myeloma cell growth inhibition, MTT, 72 h (Example 6); type: cell-based, human; settings: Homo sapiens, RPMI-8226; 72 h, MTT, RPMI8226
How it was run: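 Viability was read by MTT after 72 h of compound exposure at 37 °C, 5% CO2. Each well held 6000 RPMI8226 cells in 1640 medium containing 10% fetal bovine serum, with derivatives added at various concentrations.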

[11] = tested on: Jurkat (acute lymphoblastic leukemia, ALL); experiment: Leukemia cell growth inhibition, MTT, 72 h (Example 5); type: cell-based, human; settings: Homo sapiens, Jurkat; 72 h, MTT
How it was run: (§2)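 Seed 6000 leukemia cells per well in 1640 medium containing 10% FBS. Add test compounds at different concentrations, mix, incubate 72 hours at 37° C in 5% CO2. Determine viable cells by MTT.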

[12] = tested on: K562/adr (drug-resistant, chronic myeloid leukemia, CML); experiment: as above; type: cell-based, human; settings: Homo sapiens, K562/Adr; 72 h, MTT
How it was run: as §2

[13] = tested on: NB4 (acute promyelocytic leukemia, AML); experiment: as above; type: cell-based, human; settings: Homo sapiens; 72 h, MTT
How it was run: as §2

[14] = tested on: H9 (acute lymphoblastic leukemia, ALL); experiment: as above; type: cell-based, human; settings: Homo sapiens; 72 h, MTT
How it was run: as §2

[15] = tested on: Kasumi-1 (acute myeloid leukemia M2 type, AML-M2); experiment: as above; type: cell-based, human; settings: Homo sapiens, Kasumi 1
How it was run: as §2

Row | SMILES | IC50 [1] [µg/mL] | IC90 [1] [µg/mL] | IC50 [2] [µg/mL] | IC90 [2] [µg/mL] | IC50 [3] [µg/mL] | IC90 [3] [µg/mL] | IC50 [4] [µg/mL] | IC90 [4] [µg/mL] | IC50 [5] [µg/mL] | IC90 [5] [µg/mL] | IC50 [6] [µg/mL] | IC90 [6] [µg/mL] | IC50 [7] [µg/mL] | IC90 [7] [µg/mL] | IC50 [8] [µg/mL] | IC90 [8] [µg/mL] | IC50 [9] [µg/mL] | IC90 [9] [µg/mL] | IC50 [10] [µg/mL] | IC90 [10] [µg/mL] | further results
1 | COc1ccc2cc1Oc1ccc(cc1)C[C@H]1c3cc(c(OC)cc3CCN1C)Oc1c(OC)c(OC)c(COC(C)=O)c3c1[C@H](C2)N(C)CC3 [BS-TE-223] | 3.54 (≈ 5.09 µM) | 38.1 (≈ 54.8 µM) | 4.14 (≈ 5.96 µM) | 7.97 (≈ 11.5 µM) | 4.23 (≈ 6.09 µM) | 7.5 (≈ 10.8 µM) | 6.77 (≈ 9.74 µM) | 15 (≈ 21.6 µM) | 4.45 (≈ 6.4 µM) | 14.2 (≈ 20.4 µM) | 10.7 (≈ 15.4 µM) | 16 (≈ 23 µM) | 5.6 (≈ 8.06 µM) | 28 (≈ 40.3 µM) | 9.8 (≈ 14.1 µM) | 37.5 (≈ 54 µM) | 5.13 (≈ 7.38 µM) | 7.64 (≈ 11 µM) | 0.23 (≈ 0.331 µM) | 2.29 (≈ 3.3 µM) | IC50 [11]: 3.42 µg/mL (≈ 4.92 µM); IC90 [11]: 11.3 µg/mL (≈ 16.2 µM); IC50 [12]: 0.5 µg/mL (≈ 0.72 µM); IC90 [12]: 9.91 µg/mL (≈ 14.3 µM); IC50 [13]: 2.57 µg/mL (≈ 3.7 µM); IC90 [13]: 7.42 µg/mL (≈ 10.7 µM); IC50 [14]: 4.19 µg/mL (≈ 6.03 µM); IC90 [14]: 8.89 µg/mL (≈ 12.8 µM); IC50 [15]: 2 µg/mL (≈ 2.88 µM); IC90 [15]: 8 µg/mL (≈ 11.5 µM)
2 | COc1ccc2cc1Oc1ccc(cc1)C[C@H]1c3cc(c(OC)cc3CCN1C)Oc1c(OC)c(OC)c(CN3CCCC3)c3c1[C@H](C2)N(C)CC3 [BS-TE-305] | 1 (≈ 1.42 µM) | 10 (≈ 14.2 µM) | 1.28 (≈ 1.81 µM) | 2.3 (≈ 3.26 µM) | 0.66 (≈ 0.935 µM) | 1.65 (≈ 2.34 µM) | 1.44 (≈ 2.04 µM) | 6.24 (≈ 8.84 µM) | 1 (≈ 1.42 µM) | 5.25 (≈ 7.44 µM) | 3.72 (≈ 5.27 µM) | 13.4 (≈ 19 µM) | 1.56 (≈ 2.21 µM) | 4.9 (≈ 6.94 µM) | 1.1 (≈ 1.56 µM) | 17 (≈ 24 µM) | 0.74 (≈ 1.05 µM) | 2.05 (≈ 2.9 µM) | 0.006 (≈ 0.0085 µM) | 0.42 (≈ 0.595 µM) | anti-A549 activity increase over tetrandrine ([5]; compared with tetrandrine): ~3 fold; anti-PC-3 activity increase over tetrandrine ([7]; compared with tetrandrine): ~4 fold; IC50 [11]: 1.35 µg/mL (≈ 1.91 µM); IC90 [11]: 4.96 µg/mL (≈ 7.03 µM); IC50 [12]: 0.44 µg/mL (≈ 0.623 µM); IC90 [12]: 7.2 µg/mL (≈ 10.2 µM); IC50 [13]: 0.29 µg/mL (≈ 0.411 µM); IC90 [13]: 2 µg/mL (≈ 2.83 µM); IC50 [14]: 0.7 µg/mL (≈ 0.992 µM); IC90 [14]: 1.44 µg/mL (≈ 2.04 µM); IC50 [15]: 0.52 µg/mL (≈ 0.737 µM); IC90 [15]: 3.11 µg/mL (≈ 4.41 µM)
3 | COc1ccc2cc1Oc1ccc(cc1)C[C@H]1c3cc(c(OC)cc3CCN1C)Oc1c(OC)c(OC)c(CN3CCOCC3)c3c1[C@H](C2)N(C)CC3 [BS-TE-307] | 3.74 (≈ 5.18 µM) | 14.1 (≈ 19.6 µM) | 3 (≈ 4.16 µM) | 4.9 (≈ 6.79 µM) | 0.95 (≈ 1.32 µM) | 3.27 (≈ 4.53 µM) | 1.79 (≈ 2.48 µM) | 6.94 (≈ 9.61 µM) | 2.3 (≈ 3.19 µM) | 8 (≈ 11.1 µM) | 3.47 (≈ 4.81 µM) | 8.88 (≈ 12.3 µM) | 2.88 (≈ 3.99 µM) | 6.99 (≈ 9.68 µM) | 1.1 (≈ 1.52 µM) | 18.8 (≈ 26.1 µM) | 0.82 (≈ 1.14 µM) | 2.32 (≈ 3.21 µM) | 0.07 (≈ 0.097 µM) | 0.42 (≈ 0.582 µM) | IC50 [11]: 3.08 µg/mL (≈ 4.27 µM); IC90 [11]: 13.2 µg/mL (≈ 18.4 µM); IC50 [12]: 0.25 µg/mL (≈ 0.346 µM); IC90 [12]: 7.8 µg/mL (≈ 10.8 µM); IC50 [13]: 0.73 µg/mL (≈ 1.01 µM); IC90 [13]: 4.35 µg/mL (≈ 6.03 µM); IC50 [14]: 0.87 µg/mL (≈ 1.21 µM); IC90 [14]: 1.99 µg/mL (≈ 2.76 µM); IC50 [15]: 1 µg/mL (≈ 1.39 µM); IC90 [15]: 4.79 µg/mL (≈ 6.64 µM)
